These results are taken from patent EP3345917A1, “ANTIPROTOZOAL COMPOUNDS” (Bacoba AG, priority 2017, dated 2018).

Non-standard residues stand in square brackets, D forms with d. Residues, ends and D or L forms follow the SMILES beside them. *: point of attachment. Hexenoyl(2E,4S-Me) = CC[C@H](C)/C=C/C(=O)*; Leu(3R-OH) = CC(C)[C@@H](O)[C@H](N)C(=O)O; NH((S)CH(Me)CH2NMe2) = C[C@@H](CN(C)C)N*; Pro(4S-Me) = C[C@@H]1CN[C@H](C(=O)O)C1; Gly(octyl) = CCCCCCCC[C@H](N)C(=O)O; Nva(5-OH) = N[C@@H](CCCO)C(=O)O; Hexanoyl = CCCCCC(=O)*; Aib = CC(C)(N)C(=O)O; X12 = CCC/C=C/C(=O)*; βAla = NCCC(=O)O

For series [1], the system named is Axenically grown Leishmania donovani amastigotes (strain MHOM/ET/67/L82). Nature of the series: Axenic Leishmania donovani amastigote resazurin assay. In kind it is cell-based. To be noted: In vitro inhibition, read-out: L.don. ax. An outline of the steps: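 Strain MHOM/ET/67/L82 amastigotes grown axenically and tested in triplicate by resazurin assay. Plates developed 2-4 hours, fluorescence read at 536 nm excitation/588 nm emission and expressed as percentage of negative control.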
In general terms: Alamar Blue is a resazurin reagent that responds to reducing activity.

Series [2] deals with intracellular Leishmania donovani (L.don. InMac). Nature of the series: Intracellular Leishmania donovani assay (L.don. InMac). The settings on record: In vitro inhibition. In kind it is cell-based. The text has this: (§1) Tests were done in triplicate.
The test system of series [3] is Plasmodium falciparum. The experiment in a line: 3H-hypoxanthine incorporation assay against Plasmodium falciparum. In kind it is cell-based. To be noted: In vitro inhibition, read-out: P.falc NF5. On the procedure: as §1
IC50 values were calculated by linear interpolation.

The test system of series [4] is Trypanosoma cruzi trypomastigote forms (Tulahuen strain). Nature of the series: Intracellular Trypanosoma cruzi assay in L6-cells, beta-galactosidase/CPRG readout. In kind it is cell-based. To be noted: In vitro inhibition, read-out: T.cruzi. In a few lines: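 L6 rat myoblasts infected with Tulahuen C2C4 LacZ T. cruzi; after incubation, CPRG/Nonidet substrate added and colour developed 2–6 h. Absorbance at 540 nm; IC50 calculated; triplicate tests.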

The subject of series [5] is Trypanosoma brucei rhodesiense (STIB 900 strain). The experiment in a line: Alamar Blue assay against Trypanosoma brucei rhodesiense grown in axenic medium. In kind it is cell-based. The settings on record: In vitro inhibition, read-out: T.b.rhod. An outline of the steps:
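T. b. rhodesiense STIB 900 cultured in axenic medium and exposed to samples in an Alamar Blue viability assay, run in triplicate. IC50 calculated from the readout; melarsoprol served as reference drug.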

The nature of series [6]: Cytotoxicity assay on L6-cells (Alamar Blue). To be noted: rat, Cytotox L6, Cytotoxicity against rat myoblast cells (L6).
Method: Tests were done in triplicate. IC50 values against the parasites as well as cytotoxic effects against rat myoblast (L6-cells) were determined by serial dilution and repeated twice.
After 68 h of incubation under humidified 5% CO2 atmosphere, 10 µl of the Alamar blue marker was added to all wells. The plates were incubated for an additional 2 h. […] The IC50S were calculated by Softmax Pro software (Molecular Devices Cooperation, Sunnyvale, CA). […] Cytotoxicity was measured against rat myoblast cells (Cytotox L6).

`CCCCCCCC[C@H](NC(=O)[C@@H]1CCCN1C(=O)/C=C/[C@@H](C)CC)C(=O)N[C@H](C(=O)NC(C)(C)C(=O)N[C@@H](CC(C)C)C(=O)N[C@@H](CC(C)C)C(=O)NC(C)(C)C(=O)NC(C)(C)C(=O)NCCC(=O)N[C@@H](C)CN(C)C)[C@H](O)C(C)C` [Compound 5488, (2S)-N-[(1S,2R)-1-[(1-{[(1S)-1-{[(1S)-1-{[1-({1-[(2-{[(2S)-1-(dimethylamino)propan-2-yl]carbamoyl}ethyl)carbamoyl]-1-methylethyl}carbamoyl)-1-methylethyl]carbamoyl}-3-methylbutyl]carbamoyl}-3-methylbutyl]carbamoyl}-1-methylethyl)carbamoyl]-2-hydroxy-3-methylbutyl]-2-{[(2S)-1-[(2E,4S)-4-methylhex-2-enoyl]pyrrolidin-2-yl]formamido}decanamide] ({Hexenoyl(2E,4S-Me)}-P[Gly(octyl)][Leu(3R-OH)][Aib]LL[Aib][Aib][βAla]-{NH((S)CH(Me)CH2NMe2)}): the IC50 in series [1] was 0.6 nM; in series [2], 20.2 nM; in series [3] it was 2.6 nM; in series [4], 33.6 nM; in series [5], 2 nM. This molecule also yielded an IC50 at 70 h in series [6] of 666 nM.
For `CCCCCCCC[C@H](NC(=O)[C@@H]1C[C@H](C)CN1C(=O)/C=C/[C@@H](C)CC)C(=O)N[C@H](C(=O)NC(C)(C)C(=O)N[C@@H](CC(C)C)C(=O)N[C@@H](CC(C)C)C(=O)NC(C)(C)C(=O)NC(C)(C)C(=O)NCCC(=O)N[C@@H](C)CN(C)C)[C@H](O)C(C)C` [Compound 5492, (2S)-N-[(1S,2R)-1-[(1-{[(1S)-1-{[(1S)-1-{[1-({1-[(2-{[(2S)-1-(dimethylamino)propan-2-yl]carbamoyl}ethyl)carbamoyl]-1-methylethyl}carbamoyl)-1-methylethyl]carbamoyl}-3-methylbutyl]carbamoyl}-3-methylbutyl]carbamoyl}-1-methylethyl)carbamoyl]-2-hydroxy-3-methylbutyl]-2-{[(2S,4S)-4-methyl-1-[(2E,4S)-4-methylhex-2-enoyl]pyrrolidin-2-yl]formamido}decanamide] ({Hexenoyl(2E,4S-Me)}-[Pro(4S-Me)][Gly(octyl)][Leu(3R-OH)][Aib]LL[Aib][Aib][βAla]-{NH((S)CH(Me)CH2NMe2)}), the IC50 in series [1] turned out to be 2 nM; in series [2] it was 36.6 nM; in series [3] it was 4.7 nM; in series [4] it was 113 nM; in series [5] it was 5.5 nM. In series [6], the IC50 at 70 h turned out to be 147 nM.
As for `CC[C@H](C)/C=C/C(=O)N1C[C@@H](C)C[C@H]1C(=O)N[C@@H](CCCO)C(=O)N[C@H](C(=O)NC(C)(C)C(=O)N[C@@H](CC(C)C)C(=O)N[C@@H](CC(C)C)C(=O)NC(C)(C)C(=O)NC(C)(C)C(=O)NCCC(=O)N[C@@H](C)CN(C)C)[C@H](O)C(C)C` [Compound 5496, (2S,3R)-N-(1-{[(1S)-1-{[(1S)-1-{[1-({1-[(2-{[(2S)-1-(dimethylamino)propan-2-yl]carbamoyl}ethyl)carbamoyl]-1-methylethyl}carbamoyl)-1-methylethyl]carbamoyl}-3-methylbutyl]carbamoyl}-3-methylbutyl]carbamoyl}-1-methylethyl)-3-hydroxy-2-[(2S)-5-hydroxy-2-{[(2S,4S)-4-methyl-1-[(2E,4S)-4-methylhex-2-enoyl]pyrrolidin-2-yl]formamido}pentanamido]-4-methylpentanamide] ({Hexenoyl(2E,4S-Me)}-[Pro(4S-Me)][Nva(5-OH)][Leu(3R-OH)][Aib]LL[Aib][Aib][βAla]-{NH((S)CH(Me)CH2NMe2)}), the IC50 in series [1] turned out to be 467 nM; in series [2], 2680 nM; in series [3] it was 660 nM; in series [4] it was 5110 nM; in series [5], 6.2 nM. The same molecule came in with an IC50 at 70 h in series [6] of 5220 nM.
Take `CCC/C=C/C(=O)N1CCC[C@H]1C(=O)N[C@@H](CCCCCCCC)C(=O)N[C@H](C(=O)NC(C)(C)C(=O)N[C@@H](CC(C)C)C(=O)N[C@@H](CC(C)C)C(=O)NC(C)(C)C(=O)NC(C)(C)C(=O)NCCC(=O)N[C@@H](C)CN(C)C)[C@H](O)C(C)C` [Compound 5514, (2S)-N-[(1S,2R)-1-[(1-{[(1S)-1-{[(1S)-1-{[1-({1-[(2-{[(2S)-1-(dimethylamino)propan-2-yl]carbamoyl}ethyl)carbamoyl]-1-methylethyl}carbamoyl)-1-methylethyl]carbamoyl}-3-methylbutyl]carbamoyl}-3-methylbutyl]carbamoyl}-1-methylethyl)carbamoyl]-2-hydroxy-3-methylbutyl]-2-{[(2S)-1-[(2E)-hex-2-enoyl]pyrrolidin-2-yl]formamido}decanamide] (X12-P[Gly(octyl)][Leu(3R-OH)][Aib]LL[Aib][Aib][βAla]-{NH((S)CH(Me)CH2NMe2)}): the IC50 in series [1] stood at 0.4 nM; in series [2], 96.8 nM; in series [3], 0.8 nM; in series [4], 20.1 nM; in series [5] it was 0.2 nM. The same molecule yielded an IC50 at 70 h in series [6] of 316 nM.
For `CCCCCCCC[C@H](NC(=O)[C@@H]1CCCN1C(=O)CCCCC)C(=O)N[C@H](C(=O)NC(C)(C)C(=O)N[C@@H](CC(C)C)C(=O)N[C@@H](CC(C)C)C(=O)NC(C)(C)C(=O)NC(C)(C)C(=O)NCCC(=O)N[C@@H](C)CN(C)C)[C@H](O)C(C)C` [Compound 5517, (2S)-N-[(1S,2R)-1-[(1-{[(1S)-1-{[(1S)-1-{[1-({1-[(2-{[(2S)-1-(dimethylamino)propan-2-yl]carbamoyl}ethyl)carbamoyl]-1-methylethyl}carbamoyl)-1-methylethyl]carbamoyl}-3-methylbutyl]carbamoyl}-3-methylbutyl]carbamoyl}-1-methylethyl)carbamoyl]-2-hydroxy-3-methylbutyl]-2-{[(2S)-1-hexanoylpyrrolidin-2-yl]formamido}decanamide] (Hexanoyl-P[Gly(octyl)][Leu(3R-OH)][Aib]LL[Aib][Aib][βAla]-{NH((S)CH(Me)CH2NMe2)}), the IC50 in series [1] came out at 0.9 nM; in series [2], 142 nM; in series [3], 1.1 nM; in series [4], 45.3 nM; in series [5], 0.1 nM. For the same molecule, the IC50 at 70 h in series [6] was determined as 338 nM.
On to `CCCCCCCC[C@H](NC(=O)[C@@H](NC(=O)[C@@H]1CCCN1C(=O)/C=C/[C@@H](C)CC)[C@H](O)C(C)C)C(=O)NC(C)(C)C(=O)N[C@@H](CC(C)C)C(=O)N[C@@H](CC(C)C)C(=O)NC(C)(C)C(=O)NC(C)(C)C(=O)NCCC(=O)N[C@@H](C)CN(C)C` [Compound 5560, (2S)-N-(1-{[(1S)-1-{[(1S)-1-{[1-({1-[(2-{[(2S)-1-(dimethylamino)propan-2-yl]carbamoyl}ethyl)carbamoyl]-1-methylethyl}carbamoyl)-1-methylethyl]carbamoyl}-3-methylbutyl]carbamoyl}-3-methylbutyl]carbamoyl}-1-methylethyl)-2-[(2S,3R)-3-hydroxy-4-methyl-2-{[(2S)-1-[(2E,4S)-4-methylhex-2-enoyl]pyrrolidin-2-yl]formamido}pentanamido]decanamide] ({Hexenoyl(2E,4S-Me)}-P[Leu(3R-OH)][Gly(octyl)][Aib]LL[Aib][Aib][βAla]-{NH((S)CH(Me)CH2NMe2)}), for which the IC50 in series [1] came out at 0.8 nM; in series [2], 25.4 nM; in series [3], 1.1 nM; in series [4], 34.5 nM; in series [5], 0.2 nM. Besides, the IC50 at 70 h in series [6] came to 791 nM.
